The values below come from PubChem BioAssay AID200 (DTP/NCI, 2004).

For this test, the system named is B6C3F1 mice, B16 melanoma ip, median survival T/C. Put plainly: NCI In Vivo Anticancer Drug Screen. Data for tumor model B16 Melanoma (intraperitoneal) in B6C3F1 mice. To be noted: endpoint: median survival time, higher = longer survival. The procedure, abridged: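 Antitumor effect was judged in mice with transplanted tumors by dividing the treated group's survival measure by that of vehicle controls.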

Setting [1] is: dose: 12.5 mg/kg/injection, schedule: Q01DX009 (ip), vehicle: saline.
Setting [2] is: dose: 25.0 mg/kg/injection, schedule: Q01DX009 (ip), vehicle: saline.
[3] abbreviates: dose: 50.0 mg/kg/injection, schedule: Q01DX009 (ip), vehicle: saline.
Where [4] appears, read: dose: 100.0 mg/kg/injection, schedule: Q01DX009 (ip), vehicle: saline.
Setting [5] is: dose: 200.0 mg/kg/injection, schedule: Q01DX009 (ip), vehicle: saline.
Where [6] appears, read: dose: 6.25 mg/kg/injection, schedule: Q01DX009 (ip), vehicle: saline with Tween-80.
Setting [7] is: dose: 12.5 mg/kg/injection, schedule: Q01DX009 (ip), vehicle: saline with Tween-80.
Setting [8] is: dose: 25.0 mg/kg/injection, schedule: Q01DX009 (ip), vehicle: saline with Tween-80.
Setting [9] is: dose: 50.0 mg/kg/injection, schedule: Q01DX009 (ip), vehicle: saline with Tween-80.
Setting [10] is: dose: 100.0 mg/kg/injection, schedule: Q01DX009 (ip), vehicle: saline with Tween-80.
[11] abbreviates: dose: 200.0 mg/kg/injection, schedule: Q01DX009 (ip), vehicle: saline with Tween-80.

SMILES strings stand for the structures. Values joined by “and” are separate entries in the source; they are usually repeats but may differ in a detail not shown here. Identical values can stand only once. Toxic doses and inconclusive results are not listed. Where a SMILES comes first, the peptide text is derived from it.

As for `O=C(NO)c1ccc(O)c(O)c1`, the T/C is, setting by setting: (dose: 22.5 mg/kg/injection, schedule: Q03HX024 (ip), vehicle: water) 106 % of control; (dose: 25.0 mg/kg/injection, schedule: Q01DX009 (ip), vehicle: water) 100 % of control; (dose: 45.0 mg/kg/injection, schedule: Q03HX024 (ip), vehicle: water) 111 % of control; (dose: 50.0 mg/kg/injection, schedule: Q01DX009 (ip), vehicle: water) 109 % of control and 100 % of control; (dose: 60.0 mg/kg/injection, schedule: Q01DX009 (ip), vehicle: water) 110 % of control; (dose: 90.0 mg/kg/injection, schedule: Q03HX024 (ip), vehicle: water) 116 % of control. Also, the T/C is, setting by setting: (dose: 100.0 mg/kg/injection, schedule: Q01DX009 (ip), vehicle: water) 111 % of control and 116 % of control and 99 % of control; (dose: 116.0 mg/kg/injection, schedule: Q01DX009 (ip), vehicle: other) 116 % of control; (dose: 120.0 mg/kg/injection, schedule: Q01DX009 (ip), vehicle: water) 110 % of control; (dose: 176.0 mg/kg/injection, schedule: Q01DX009 (ip), vehicle: other) 120 % of control; (dose: 176.0 mg/kg/injection, schedule: Q01DX009 (ip), vehicle: water) 120 % of control; (dose: 180.0 mg/kg/injection, schedule: Q03HX024 (ip), vehicle: water) 119 % of control. In addition, the T/C (dose: 200.0 mg/kg/injection, schedule: Q01DX009 (ip), vehicle: water) is 112 % of control and 123 % of control; the T/C (dose: 270.0 mg/kg/injection, schedule: Q03HX024 (ip), vehicle: water) was 87 % of control.
Turning to `O=C(O)/C=C(\F)C(=O)O`, the T/C is 97 % of control and 100 % of control (dose: 6.25 mg/kg/injection, schedule: Q01DX009 (ip), vehicle: saline); 102 % of control and 107 % of control under setting [1]; 108 % of control and 117 % of control under setting [2]; 113 % of control and 114 % of control under setting [3]; 103 % of control and 113 % of control under setting [4]; 113 % of control and 103 % of control under setting [5].
Turning to `CC(C)CC(C(=O)O)N(C)C(=O)OC(C)(C)C` (stereo not given), the T/C (dose: 100.0 mg/kg/injection, schedule: Q01DX009 (ip), vehicle: Klucel (hydroxypropylcellulose) (HPC)) was 101 % of control and the T/C (dose: 200.0 mg/kg/injection, schedule: Q01DX009 (ip), vehicle: Klucel (hydroxypropylcellulose) (HPC)) is 90 % of control.
Regarding `CCc1nc(N)nc(N)c1-c1ccc(Cl)c(N=[N+]=[N-])c1`, the T/C runs as follows: (dose: 12.5 mg/kg/injection, schedule: Q01DX009 (ip), vehicle: distilled water + Tween-80) 100 % of control; (dose: 25.0 mg/kg/injection, schedule: Q01DX009 (ip), vehicle: distilled water + Tween-80) 98 % of control and 102 % of control; (dose: 50.0 mg/kg/injection, schedule: Q01DX009 (ip), vehicle: distilled water + Tween-80) 108 % of control (2×) and 109 % of control; (dose: 100.0 mg/kg/injection, schedule: Q01DX009 (ip), vehicle: distilled water + Tween-80) 122 % of control; (dose: 200.0 mg/kg/injection, schedule: Q01DX009 (ip), vehicle: distilled water + Tween-80) 157 % of control and 169 % of control.
Regarding `O=C(O)CCCc1ccc(N(CCCl)CCCl)cc1`, the T/C is, setting by setting: (dose: 1.56 mg/kg/injection, schedule: Q01DX009 (ip), vehicle: saline with Tween-80) 113 % of control and 106 % of control; (dose: 3.13 mg/kg/injection, schedule: Q01DX009 (ip), vehicle: saline with Tween-80) 119 % of control and 103 % of control; under setting [6], 118 % of control; under setting [7], 98 % of control and 106 % of control.
`O=c1n(CC2CO2)c(=O)n(CC2CO2)c(=O)n1CC1CO1` (stereo not given): the T/C reads like this: (dose: 3.12 mg/kg/injection, schedule: Q01DX009 (ip), vehicle: saline) 121 % of control; (dose: 5.0 mg/kg/injection, schedule: Q01DX009 (ip), vehicle: saline) 155 % of control; under setting [6], 171 % of control; (dose: 6.25 mg/kg/injection, schedule: Q01DX009 (ip), vehicle: suspension in saline) 178 % of control and 152 % of control; (dose: 10.0 mg/kg/injection, schedule: Q01DX009 (ip), vehicle: saline) 186 % of control; under setting [7], 212 % of control and 153 % of control. The T/C was 188 % of control under setting [1]; 211 % of control and 172 % of control (dose: 12.5 mg/kg/injection, schedule: Q01DX009 (ip), vehicle: suspension in saline); 228 % of control (dose: 20.0 mg/kg/injection, schedule: Q01DX009 (ip), vehicle: saline); 263 % of control and 197 % of control under setting [8]; 205 % of control and 227 % of control and 170 % of control under setting [2]; 282 % of control and 235 % of control (dose: 25.0 mg/kg/injection, schedule: Q01DX009 (ip), vehicle: suspension in saline). Besides, the T/C is 261 % of control (dose: 40.0 mg/kg/injection, schedule: Q01DX009 (ip), vehicle: saline); 233 % of control under setting [9]; 234 % of control and 172 % of control under setting [3]; 255 % of control (dose: 50.0 mg/kg/injection, schedule: Q01DX009 (ip), vehicle: suspension in saline); 191 % of control under setting [4].
On to `CC(=O)NC(Cc1ccccc1)C(=O)NC(Cc1ccccc1)C(=O)O` (stereo not drawn) (Ac-Phe-Phe-OH; configuration not given here), for which the T/C was 107 % of control under setting [8]; 100 % of control under setting [9]; 102 % of control under setting [10]; 104 % of control under setting [11]; 92 % of control (dose: 400.0 mg/kg/injection, schedule: Q01DX009 (ip), vehicle: saline with Tween-80).
Take `Cc1c2cc(Cl)c3ccccc3c2c[n+]2ccccc12`: the T/C by setting is: (dose: 3.12 mg/kg/injection, schedule: Q01DX009 (ip), vehicle: saline with Tween-80) 103 % of control; under setting [6], 108 % of control; under setting [7], 112 % of control; under setting [8], 101 % of control; under setting [9], 108 % of control.
With `C1CCN(c2c3c(nc4nnnn24)CCC3)CC1`, the T/C was 91 % of control under setting [9], 104 % of control under setting [10] and 92 % of control under setting [11].
With `Cc1cc2nc3ccc(N)cc3oc-2cc1=[N+](C)C`, the T/C runs as follows: under setting [1], 106 % of control; under setting [2], 112 % of control.
With `O=C(O)CC(NC(=O)CP(=O)(O)O)C(=O)O.[NH-]C1CCCCC1[NH-].[Pt+2]` (stereo not given), the T/C (dose: 0.78 mg/kg/injection, schedule: Q01DX009 (ip), vehicle: dextrose) was 157 % of control and the T/C (dose: 3.12 mg/kg/injection, schedule: Q01DX009 (ip), vehicle: dextrose) is 175 % of control.
With `CCCCCC[C@@H](O)C/C=C\CCCCCCCC(=O)OCCO`, the T/C runs as follows: under setting [2], 101 % of control; under setting [3], 110 % of control; (dose: 75.0 mg/kg/injection, schedule: Q01DX009 (ip), vehicle: saline) 102 % of control; under setting [4], 122 % of control; (dose: 150.0 mg/kg/injection, schedule: Q01DX009 (ip), vehicle: saline) 97 % of control; under setting [5], 101 % of control. Besides, the T/C reads like this: (dose: 300.0 mg/kg/injection, schedule: Q01DX009 (ip), vehicle: saline) 100 % of control; (dose: 400.0 mg/kg/injection, schedule: Q01DX009 (ip), vehicle: saline) 103 % of control; (dose: 600.0 mg/kg/injection, schedule: Q01DX009 (ip), vehicle: saline) 95 % of control; (dose: 800.0 mg/kg/injection, schedule: Q01DX009 (ip), vehicle: saline) 96 % of control; (dose: 1200.0 mg/kg/injection, schedule: Q01DX009 (ip), vehicle: saline) 96 % of control.
As for `CNC(=O)c1cccc2c(Nc3ccc(NS(C)(=O)=O)cc3OC)c3cccc(C)c3nc12`, the T/C reads like this: (dose: 0.75 mg/kg/injection, schedule: Q01DX009 (ip), vehicle: water) 116 % of control; (dose: 0.78 mg/kg/injection, schedule: Q01DX009 (ip), vehicle: water) 114 % of control; (dose: 3.0 mg/kg/injection, schedule: Q01DX009 (ip), vehicle: water) 168 % of control; (dose: 6.25 mg/kg/injection, schedule: Q01DX009 (ip), vehicle: water) 106 % of control.
